Laboratory results published in patent publication US8404692B2, “Pyrimidin-4-yl-3, 4-dihydro-2H-pyrrolo [1,2A] pyrazin-1-one compounds” (Cyclacel Limited, priority 2005, dated 2013).

Columns and labels:
CDK2/E = CDK2/E (Homo sapiens, UniProt P24941); experiment: In vitro kinase assay CDK2/E; type: biochemical; conditions: in vitro kinase data
Experimental: The compounds of the invention above were investigated for their ability to inhibit the enzymatic activity of various protein kinases. This was achieved by measurement of incorporation of radioactive phosphate from ATP into appropriate polypeptide substrates. Recombinant protein kinases and kinase complexes were produced or obtained commercially. Assays were performed using 96-well plates and appropriate assay buffers (typically 25 mM β-glycerophosphate, 20 mM MOPS, 5 mM EGTA, 1 mM DTT, 1 mM […], pH 7.4), into which were added 2-4 μg of active enzyme with appropriate substrates. The reactions were initiated by addition of Mg/ATP mix (15 mM MgCl2+100 μM ATP with 30-50 kBq per well of [γ-^32P]-ATP) and mixtures incubated as required at 30° C. Reactions were stopped on ice, followed by filtration through p81 filterplates or GF/C filterplates (Whatman Polyfiltronics, Kent, UK). After washing 3 times with 75 mM aq orthophosphoric acid, plates were dried, scintillant added and incorporated radioactivity measured in a scintillation counter (TopCount, Packard Instruments, Pangbourne, Berks, UK). Compounds for kinase assay were made up as 10 mM stocks in DMSO and diluted into 10% DMSO in assay buffer. […]

human CDK7/cyclin H = human CDK7/cyclin H (Homo sapiens, UniProt P50613); experiment: CDK 7 and 9 assays: CDK7/H; type: biochemical; conditions: in vitro kinase data
Experimental: The compounds of the invention above were investigated for their ability to inhibit the enzymatic activity of various protein kinases. This was achieved by measurement of incorporation of radioactive phosphate from ATP into appropriate polypeptide substrates. Recombinant protein kinases and kinase complexes were produced or obtained commercially. Assays were performed using 96-well plates and appropriate assay buffers (typically 25 mM β-glycerophosphate, 20 mM MOPS, 5 mM EGTA, 1 mM DTT, 1 mM […], pH 7.4), into which were added 2-4 μg of active enzyme with appropriate substrates. The reactions were initiated by addition of Mg/ATP mix (15 mM MgCl2+100 μM ATP with 30-50 kBq per well of [γ-^32P]-ATP) and mixtures incubated as required at 30° C. Reactions were stopped on ice, followed by filtration through p81 filterplates or GF/C filterplates (Whatman Polyfiltronics, Kent, UK). After washing 3 times with 75 mM aq orthophosphoric acid, plates were dried, scintillant added and incorporated radioactivity measured in a scintillation counter (TopCount, Packard Instruments, Pangbourne, Berks, UK). Compounds for kinase assay were made up as 10 mM stocks in DMSO and diluted into 10% DMSO in assay buffer. Data was analysed using curve-fitting software (GraphPad Prism version 3.00 for Windows, GraphPad Software, San Diego Calif. USA) to determine IC50 values (concentration of test compound which inhibits kinase activity by 50%).
CTD peptide substrate (biotinyl-Ahx-(Tyr-Ser-Pro-Thr-Ser-Pro-Ser)4-NH2; 1-2 mg/mL) and recombinant human CDK7/cyclin H, CDK9/cyclin T1, or CDK9/cyclin K (0.5-2 μg) were incubated for 45 min at 30° C. in the presence of varying amounts of test compound in 20 mM MOPS pH 7.2, 25 mM β-glycerophosphate, 5 mM EGTA, 1 mM DTT, 1 mM sodium vanadate, 15 mM MgCl2, and 100 μM ATP (containing a trace amount of ^32PγATP) in a total volume of 25 μL in a 96-well microtiter plate. […] Microscint 40 scintillation liquid (50 μL) was added to each well, and the amount of ^32P incorporation for each sample was measured using a Packard Topcount microplate scintillation counter.

[1] = test system: nuclear phospho-Histone H3 and/or MPM2 staining; experiment: Cellomics Arrayscan assay for mitotic index (PH3 and MPM2 staining); type: cell-based; conditions: for IC50: IC50 of phosphorylated Histone H3 staining normalised using MPM2 staining, read-out: MI (Cellomics) PH3/MPM2 IC50*; for MI (Cellomics) MPM2 % of Control**: cells stained with MPM2 Ab after treatment, as % of MPM2 stained cells treated with vehicle (DMSO)
Experimental: The percentage of cells with nuclear phospho-Histone H3 and/or MPM2 staining were determined in 96-well plate assays using the Cellomics Arrayscan Mitotic Index HitKit protocol (Cellomics Inc). Briefly, cells were plated at 10^4 cells per well and incubated for 16-18 h at 37° C. Compounds were added and the cells incubated for the appropriate time before a 15 min fixation in 3.7% formaldehyde in wash buffer (Cellomics Inc.). Cells were permeabilised in 0.2% Triton in wash buffer for 15 min, washed, then incubated with primary antibodies that specifically recognise mitotic epitopes; rabbit anti-phosphohistone H3 (Upstate 06570) or mouse anti-phospho-Ser/Thr-Pro MPM2 (Upstate 05-368). After a 1 h incubation cells were washed and incubated with secondary FITC-conjugated anti-mouse and/or TRITC-conjugated anti-rabbit secondary antibodies (Jackson laboratories) and Hoescht dye. After a further 1 h incubation the cells were washed, then the plate was analysed using a Cellomics Arrayscan II automated fluorescent microscopy system to detect nuclear fluorescent staining. Data for 2000 cells per well were stored and the percentage of cells expressing mitotic epitopes compared to total cells (stained with Hoescht dye) was calculated using the Cellomics mitotic index algorithm.

A2780 = experiment: MTT cytotoxicity assay A2780; type: cell-based; conditions: Homo sapiens; A2780 cells, 96-h MTT
Experimental: (§1) The compounds of the invention were subjected to a standard cellular proliferation assay using cell lines […] and MiaPaCa (obtained from The European Collection of Cell Cultures). […] C.; Thomas, D. G.; Darling, J. L. Anti Cancer Drugs 1996, 7, 331-8; Loveland, B. E.; Johns, T. G.; Mackay, I. R.; Vaillant, F.; Wang, Z. X.; Hertzog, P. J. Biochemistry International 1992, 27, 501-10). In short: cells were seeded into 96-well plates according to doubling time and incubated overnight at 37° C. […] MTT was made up as a stock of 5 mg/mL in cell media and filter-sterilised. Media was removed from cells followed by a wash with 200 μL PBS. MTT solution was then added at 20 μL per well and incubated in the dark at 37° C. for 4 h. MTT solution was removed and cells again washed with 200 μL PBS. MT dye was solubilised with […] per well of DMSO with agitation. Absorbance was read at 540 nm and data analysed using curve-fitting software (GraphPad Prism version 3.00 for Windows, GraphPad Software, San Diego Calif. USA) to determine IC50 values (concentration of test compound which inhibits cell growth by 50%).

MiaPaCa = experiment: MTT cytotoxicity assay MiaPaCa; type: cell-based; conditions: Homo sapiens, MIA PaCa-2; MiaPaCa cells, 96-h MTT
Experimental: as §1

aurora-A (human) = molecular target: T1, aurora-A (human) (Homo sapiens, UniProt O14965); experiment: Aurora-A (human) kinase assay; type: biochemical; conditions: read-out: Activity (Aurora A activity, IC50 grading)
T1 construct: purchased Upstate, Dundee, UK
T1 sequence (O14965 1-403): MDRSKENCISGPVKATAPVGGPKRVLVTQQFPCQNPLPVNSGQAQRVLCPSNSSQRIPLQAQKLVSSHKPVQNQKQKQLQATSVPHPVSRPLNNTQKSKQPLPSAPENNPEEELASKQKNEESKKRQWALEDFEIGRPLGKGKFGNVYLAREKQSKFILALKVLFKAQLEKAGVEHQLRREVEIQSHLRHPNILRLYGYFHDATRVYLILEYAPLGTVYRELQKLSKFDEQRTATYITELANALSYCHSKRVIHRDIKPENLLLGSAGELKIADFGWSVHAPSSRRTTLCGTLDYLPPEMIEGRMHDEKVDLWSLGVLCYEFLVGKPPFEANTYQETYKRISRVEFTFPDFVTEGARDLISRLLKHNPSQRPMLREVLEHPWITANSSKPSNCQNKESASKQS
In short: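 Radiometric assay measuring [γ-32P] transfer from 100 μM ATP to 500 μM Kemptide by 2-5 ng active human aurora-A, pH 7.5 buffer, 30 min at 30° C. Incorporated label captured on P81 filters and counted by scintillation; IC50 from curve fitting.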

Sequence of human CDK7/cyclin H (P50613 whole entry): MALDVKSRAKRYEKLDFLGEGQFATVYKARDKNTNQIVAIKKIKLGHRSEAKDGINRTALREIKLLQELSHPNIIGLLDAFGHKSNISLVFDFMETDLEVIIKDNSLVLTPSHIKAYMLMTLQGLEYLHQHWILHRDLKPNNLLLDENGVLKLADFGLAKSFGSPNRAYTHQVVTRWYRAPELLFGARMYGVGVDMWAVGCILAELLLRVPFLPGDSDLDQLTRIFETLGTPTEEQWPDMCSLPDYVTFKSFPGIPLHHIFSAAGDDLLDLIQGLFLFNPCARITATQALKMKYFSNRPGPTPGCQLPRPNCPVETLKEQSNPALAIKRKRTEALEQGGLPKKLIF
Sequence of human CDK7/cyclin H (P51946 whole entry partner): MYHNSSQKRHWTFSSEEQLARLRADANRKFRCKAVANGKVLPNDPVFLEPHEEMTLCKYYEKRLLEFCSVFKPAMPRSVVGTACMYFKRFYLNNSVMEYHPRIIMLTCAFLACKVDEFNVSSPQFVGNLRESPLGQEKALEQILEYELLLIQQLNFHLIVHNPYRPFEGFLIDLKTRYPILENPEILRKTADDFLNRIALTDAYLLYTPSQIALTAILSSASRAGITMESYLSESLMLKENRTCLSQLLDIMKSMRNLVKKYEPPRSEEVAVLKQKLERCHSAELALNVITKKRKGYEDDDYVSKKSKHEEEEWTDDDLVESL

Row | Ki (CDK2/E) [nM] | Ki (human CDK7/cyclin H) [nM] | IC50 (aurora-A (human)) [nM] | Compound | IC50 [1] [nM] | MI (Cellomics) MPM2 % of Control** [1] [%] | IC50 (A2780) [nM] | IC50 (MiaPaCa) [nM]
1 | 1130 | 2990 | < 1000 | Cc1c(-c2ccnc(Nc3ccc(F)cc3)n2)c(C)n2c1C(=O)NCC2 [Example I-1, 7-[2-(4-Fluoro-phenylamino)-pyrimidin-4-yl]-6,8-dimethyl-3,4-dihydro-2H-pyrrolo[1,2-a]pyrazin-1-one] | 16300 | 239 | 4470 | > 10000
2 | – | 3410 | < 1000 | Cc1c(-c2ccnc(Nc3ccc(N4CCOCC4)cc3)n2)c(C)n2c1C(=O)NCC2 [Example I-2, 6,8-Dimethyl-7-[2-(4-morpholin-4-yl-phenylamino)-pyrimidin-4-yl]-3,4-dihydro-2H-pyrrolo[1,2-a]pyrazin-1-one] | 9200 | 333 | 575 | 1800
3 | – | 2790 | < 100 | COc1cc(Nc2nccc(-c3c(C)c4n(c3C)CCNC4=O)n2)ccc1N1CCOCC1 [Example I-3, 7-[2-(3-Methoxy-4-morpholin-4-yl-phenylamino)-pyrmidin-4-yl]-6,8-dimethyl-3,4-dihydro-2H-pyrrolo[1,2-a]pyrazin-1-one] | 4740 | 317 | 750 | 1850
4 | – | – | < 100 | Cc1c(-c2ccnc(Nc3ccc(C(=O)NC4CCN(C)CC4)cc3)n2)c(C)n2c1C(=O)NCC2 [Example I-115, 4-[4-(6,8-Dimethyl-1-oxo-1,2,3,4-tetrahydro-pyrrolo[1,2-a]pyrazin-7-yl)-pyrimidin-2-ylamino]-N-(1-methyl-piperidin-4-yl)-benzamide] | – | – | – | –
